Measurements: US4271073A, “6-Substituted-9-(2-hydroxyethyl)-1,2,3,4-tetrahydro carbazol-1-one” (Cassella Aktiengesellschaft, priority 1979, dated 1981)

assay: Antagonism Tetrabenazine (antidepressive action); assay type: in vivo; settings: species, route and unit inferred, read-out: ED50 Antagonism Dosage Tetrabenazine

| SMILES | ED50 [mg/kg] |
| --- | --- |
| Cc1ccc2c(c1)c1c3n2CCNC3CCC1.Cl (stereo not drawn) [8-methyl-2,3,3a,4,5,6-hexahydro-1H-pyrazino[3,2,1-jk]carbazole-hydrochloride, reference compound] | 14 |
| COc1ccc2c(c1)c1c3n2CCN=C3CCC1.Cl [Example 2, 8-methoxy-2,4,5,6-tetrahydro-1H-pyrazino[3,2,1-jk]carbazole-hydrochloride] | 2 |
| Cc1ccc2c(c1)c1c3n2CCN=C3CCC1.Cl [Example 1, 8-methyl-2,4,5,6-tetrahydro-1H-pyrazino[3,2,1-jk]carbazole-hydrochloride] | 4 |
